As a reminder, the IC50 is the concentration at which inhibition is half-maximal. Higher therefore signals lower potency.

This assay addresses P2X7 receptor (Homo sapiens (Human), UniProt Q99572). Description: P2X7 FLIPR assay: antagonism of BzATP response in 293 HEK cells stably expressing P2X7 receptor. The class given is cell-based. To be noted: FLIPR fluorescence (Fluo-4), agonist BzATP, 293 HEK cells stably transfected with P2X7 receptor. Summed up:
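Antagonist IC50 derived from FLIPR Tetra Fluo-4 calcium signal evoked by BzATP. Compound pre-incubation was 30 min at room temperature on P2X7-expressing HEK293 cells, seeded 24 h before in low-serum medium and dye-loaded 30 min at 37 °C then 30 min at RT.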

Chain of P2X7 receptor (Q99572 whole entry): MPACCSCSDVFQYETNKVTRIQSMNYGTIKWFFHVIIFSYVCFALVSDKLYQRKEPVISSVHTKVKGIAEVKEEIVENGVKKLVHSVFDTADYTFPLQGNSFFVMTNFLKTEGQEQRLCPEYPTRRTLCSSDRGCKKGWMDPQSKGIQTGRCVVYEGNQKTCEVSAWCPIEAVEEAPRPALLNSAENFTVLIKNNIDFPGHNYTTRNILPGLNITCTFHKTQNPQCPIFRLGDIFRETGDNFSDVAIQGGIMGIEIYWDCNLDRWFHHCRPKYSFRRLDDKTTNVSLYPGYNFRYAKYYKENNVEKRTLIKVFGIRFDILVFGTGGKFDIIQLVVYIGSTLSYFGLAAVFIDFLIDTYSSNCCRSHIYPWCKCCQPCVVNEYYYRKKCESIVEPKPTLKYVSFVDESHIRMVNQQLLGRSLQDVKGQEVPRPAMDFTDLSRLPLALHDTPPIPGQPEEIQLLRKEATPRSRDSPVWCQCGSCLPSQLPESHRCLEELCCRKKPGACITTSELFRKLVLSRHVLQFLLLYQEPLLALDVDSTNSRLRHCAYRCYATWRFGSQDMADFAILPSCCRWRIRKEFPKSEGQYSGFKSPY

`O=C(NCC(c1cnc(C2CC2)nc1)N1CCC(F)(F)CC1)c1cccc(Cl)c1Cl` (single isomer, unassigned; (+)) [(+)2,3-dichloro-N-[2-(2-cyclopropylpyrimidin-5-yl)-2-(4,4-di] [(+)2,3-dichloro-N-(2-(2-cyclopropylpyrimidin-5-yl)-2-(4,4-difluoropiperidin-1-yl)ethyl)benzamide] showed a concentration for half-maximal inhibition (IC50) of 4.3 nM. Next, `O=C(NCC(c1ccc(Cl)cc1)N1CCOCC1)c1cccc(Cl)c1Cl` (centres unmarked) [2,3-Dichloro-N-[2-(4-chloro-phenyl)-2-morpholin-4-yl-ethyl]-benzamide]: 0.6 nM; `Cn1cc(C(CNC(=O)c2cccc(Cl)c2Cl)N2CCC(F)(F)CC2)cn1` (single isomer, unassigned; (-)) [(−)2,3-dichloro-N-[2-(4,4-difluoro-1-piperidyl)-2-(1-methylp] [(−)2,3-dichloro-N-(2-(4,4-difluoropiperidin-1-yl)-2-(1-methyl-1H-pyrazol-4-yl)ethyl)benzamide]: 25 nM. In the case of `COc1ccc(C(=O)NCC(c2cnc(C(F)(F)F)nc2)N2CCC(F)(F)CC2)c(Cl)c1` (single isomer, unassigned; (-)) [(−)2-chloro-N-[2-(4,4-difluoro-1-piperidyl)-2-[2-(trifluorom] [(−)2-chloro-4-methoxy-N-(2-(4,4-difluoropiperidin-1-yl)-2-(2-(trifluoromethyl)pyrimidin-5-yl)ethyl)benzamide] it was 2.2 nM.

`Cc1ncc(C(CNC(=O)c2c(F)cccc2Cl)N2CCOCC2)cn1` (centres unmarked) [2-chloro-6-fluoro-N-(2-(2-methylpyrimidin-5-yl)-2-morpholinoethyl)benzamide] registered an IC50 of 590 nM.

With `Cc1ccc(C(CNC(=O)c2cc(C)ccc2Cl)N2CCOCC2)cc1` (centres unmarked) [2-Chloro-5-methyl-N-(2-morpholin-4-yl-2-p-tolyl-ethyl)-benzamide], the IC50 came to 38 nM. With `Cc1ncc(C(CNC(=O)c2cccc(Cl)c2Cl)N2CCC(F)(F)CC2)cn1` (single isomer, unassigned; (-)) [(−)2,3-dichloro-N-[2-(4,4-difluoro-1-piperidyl)-2-(2-methylp] [(−)2,3-dichloro-N-(2-(4,4-difluoropiperidin-1-yl)-2-(2-methylpyrimidin-5-yl)ethyl)benzamide], the concentration for half-maximal inhibition (IC50) amounted to 5.8 nM. In the case of `O=C(NCC(c1cnc(C2CC2)nc1)N1CCC(F)(F)CC1)c1c(F)cccc1Cl` (single isomer, unassigned; (+)) [(+)2-chloro-N-[2-(2-cyclopropylpyrimidin-5-yl)-2-(4,4-difluo] [(+)2-chloro-6-fluoro-N-(2-(2-cyclopropylpyrimidin-5-yl)-2-(4,4-difluoropiperidin-1-yl)ethyl)benzamide] it was 9.9 nM. With `CS(=O)(=O)c1ccc(Cl)c(C(=O)NCC(c2ccc(C(F)(F)F)nc2)N2CCOCC2)c1` (single isomer, unassigned; (+)) [(+)2-chloro-5-methylsulfonyl-N-[2-morpholino-2-[6-(trifluoro] [(+)2-chloro-5-(methylsulfonyl)-N-(2-morpholino-2-(6-(trifluoromethyl)pyridin-3-yl)ethyl)benzamide], the half-inhibitory concentration (IC50) worked out at 71 nM.

`Cc1ncc(C(CNC(=O)c2cc(F)cc(Cl)c2Cl)N2CCC(F)(F)CC2)cn1` (single isomer, unassigned; (-)) [(−)2,3-dichloro-N-[2-(4,4-difluoro-1-piperidyl)-2-(2-methylp] [(−)2,3-dichloro-5-fluoro-N-(2-(4,4-difluoropiperidin-1-yl)-2-(2-methylpyrimidin-5-yl)ethyl)benzamide]: the IC50 was 14 nM.

For the molecule `COc1ccccc1C(=O)NCC(c1ccc(C(F)(F)F)nc1)N1CCOCC1` (single isomer, unassigned; (-)) [(−)2-methoxy-N-[2-morpholino-2-[6-(trifluoromethyl)-3-pyridy] [(−)2-Methoxy-N-[2-morpholin-4-yl-2-(6-trifluoromethyl-pyridin-3-yl)-ethyl]-benzamide], the concentration for half-maximal inhibition (IC50) is 21 nM.

These data come from patent publication US9415055B2, “Cyclic amines” (H. Lundbeck A/S, priority 2012, dated 2016).
